Test results taken from patent publication US12157746B2, “Tetrahydro-1H-pyrazino[2,1-a]isoindolylquinoline compounds for the treatment of autoimmune disease” (F. HOFFMANN-LA ROCHE AG, priority 2018, dated 2024).

Target: T1, human TLR7 (Homo sapiens, UniProt Q9NYK1)
T1 sequence (Q9NYK1 27-1049): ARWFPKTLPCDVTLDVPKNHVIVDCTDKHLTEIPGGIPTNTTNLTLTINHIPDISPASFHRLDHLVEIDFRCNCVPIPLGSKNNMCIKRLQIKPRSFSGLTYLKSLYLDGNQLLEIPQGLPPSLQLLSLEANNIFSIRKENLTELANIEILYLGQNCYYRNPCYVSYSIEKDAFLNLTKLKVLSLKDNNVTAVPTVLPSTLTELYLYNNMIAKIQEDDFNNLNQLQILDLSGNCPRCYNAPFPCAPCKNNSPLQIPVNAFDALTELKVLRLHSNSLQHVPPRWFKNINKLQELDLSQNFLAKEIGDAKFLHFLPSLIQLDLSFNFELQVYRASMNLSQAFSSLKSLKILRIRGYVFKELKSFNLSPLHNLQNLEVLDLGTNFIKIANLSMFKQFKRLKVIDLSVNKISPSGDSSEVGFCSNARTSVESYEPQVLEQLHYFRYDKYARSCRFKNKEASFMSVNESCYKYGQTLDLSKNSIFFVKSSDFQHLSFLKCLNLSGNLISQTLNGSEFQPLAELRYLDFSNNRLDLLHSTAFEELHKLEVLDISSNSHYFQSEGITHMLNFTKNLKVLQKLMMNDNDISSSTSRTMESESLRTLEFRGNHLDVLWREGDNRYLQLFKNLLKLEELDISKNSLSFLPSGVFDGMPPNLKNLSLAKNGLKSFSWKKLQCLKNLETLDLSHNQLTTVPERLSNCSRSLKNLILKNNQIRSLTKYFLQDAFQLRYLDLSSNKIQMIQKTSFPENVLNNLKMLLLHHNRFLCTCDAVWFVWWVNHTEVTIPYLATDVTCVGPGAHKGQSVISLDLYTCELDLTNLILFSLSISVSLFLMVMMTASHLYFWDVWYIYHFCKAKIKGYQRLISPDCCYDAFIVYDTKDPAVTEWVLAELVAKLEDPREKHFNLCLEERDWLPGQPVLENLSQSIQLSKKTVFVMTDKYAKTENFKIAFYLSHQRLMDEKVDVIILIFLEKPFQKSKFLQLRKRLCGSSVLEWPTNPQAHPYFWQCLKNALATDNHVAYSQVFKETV
Assay: HEK293-Blue-hTLR-7 cells assay
Type: cell-based
Details: HEK293-Blue-hTLR7 cells, R848 stimulation, 20 hrs, SEAP reporter; read-out: HEK/hTLR7 IC50
Text: HEK293-Blue-hTLR-7 Cells Assay:
A stable HEK293-Blue-hTLR-7 cell line was purchased from InvivoGen (Cat. #: hkb-htlr7, San Diego, California, USA). These cells were originally designed for studying the stimulation of human TLR7 by monitoring the activation of NF-κB. A SEAP (secreted embryonic alkaline phosphatase) reporter gene was placed under the control of the IFN-β minimal promoter fused to five NF-κB and AP-1-binding sites. The SEAP was induced by activating NF-κB and AP-1 via stimulating HEK-Blue hTLR7 cells with TLR7 ligands. Therefore the reporter expression was declined by TLR7 antagonist under the stimulation of a ligand, such as R848 (Resiquimod), for incubation of 20 hrs. The cell culture supernatant SEAP reporter activity was determined using QUANTI-Blue™ kit (Cat. #: rep-qb1, Invivogen, San Diego, Ca. USA) at a wavelength of 640 nm, a detection medium that turns purple or blue in the presence of alkaline phosphatase.
HEK293-Blue-hTLR7 cells were incubated at a density of 250,000˜450,000 cells/mL in a volume of 170 μL in a 96-well plate in Dulbecco's Modified Eagle's medium (DMEM) containing 4.5 g/L glucose, 50 U/mL penicillin, […], […], 2 mM L-glutamine, 10% (v/v) heat-inactivated fetal bovine serum with addition of 20 μL test compound 1n a serial dilution in the presence of final DMSO at 1% and 10 μL of 20 uM R848 in above DMEM, perform incubation under 37° C. in a CO2 incubator for 20 hrs. Then 20 μL of the supernatant from each well was incubated with 180 μL Quanti-blue substrate solution at 37° C. for 2 hrs and the absorbance was read at 620-655 nm using a spectrophotometer. The signaling pathway that TLR7 activation leads to downstream NF-κB activation has been widely accepted, and therefore similar reporter assay was modified for evaluating TLR7 antagonist.

| IC50 | Structure (SMILES) |
| --- | --- |
| 3.4 nM | C[C@@H]1CN(c2ccc(C#N)c3ncccc23)C[C@@H]2c3ccc(N4CCOC5(CNC5)C4)cc3CN12 [Example 24, 5-[(4R,10bS)-4-methyl-8-(5-oxa-2,8-diazaspiro[3.5]nonan-8-yl)-3,4,6,10b-tetrahydro-1H-pyrazino[2,1-a]isoindol-2-yl]quinoline-8-carbonitrile] |
| < 3.2 nM | C[C@@H]1CN(c2ccc(C#N)c3ncccc23)C[C@@H]2c3ccc(OCCN(C)C)cc3CN12 [Example 25, 5-[(4R,10bS)-8-[2-(dimethylamino)ethoxy]-4-methyl-3,4,6,10b-tetrahydro-1H-pyrazino[2,1-a]isoindol-2-yl]quinoline-8-carbonitrile] |
| 5.8 nM | C[C@@H]1CN(c2ccc(C#N)c3ncccc23)C[C@@H]2c3ccc(NCCN(C)C)cc3CN12 [Example 26, 5-[(4R,10bS)-8-[2-(dimethylamino)ethylamino]-4-methyl-3,4,6,10b-tetrahydro-1H-pyrazino[2,1-a]isoindol-2-yl]quinoline-8-carbonitrile] |
| 15.6 nM | C[C@@H]1CN(c2ccc(C#N)c3ncccc23)C[C@@H]2c3ccc(NC4CNC4)cc3CN12 [Example 28, 5-[(4R,10S)-8-(azetidin-3-ylamino)-4-methyl-3,4,6,10b-tetrahydro-1H-pyrazino[2,1-a]isoindol-2-yl]quinoline-8-carbonitrile] |
| < 3.2 nM | C[C@@H]1CN(c2ccc(C#N)c3ncccc23)C[C@@H]2c3ccc(C4CNC4)cc3CN12 [Example 29, 5-[(4R,10bS)-8-(azetidin-3-yl)-4-methyl-3,4,6,10b-tetrahydro-1H-pyrazino[2,1-a]isoindol-2-yl]quinoline-8-carbonitrile] |
| < 3.2 nM | C[C@@H]1CN(c2ccc(C#N)c3ncccc23)C[C@@H]2c3ccc(N[C@H]4CNC[C@H]4F)cc3CN12 [Example 30, 5-[(4R,10bS)-8-[[(3S,4R)-4-fluoropyrrolidin-3-yl]amino]-4-methyl-3,4,6,10b-tetrahydro-1H-pyrazino[2,1-a]isoindol-2-yl]quinoline-8-carbonitrile] |
| 4.1 nM | C[C@@H]1CN(c2ccc(C#N)c3ncccc23)C[C@@H]2c3ccc(N[C@H]4CNC[C@@H]4F)cc3CN12 [Example 31, 5-[(4R,10bS)-8-[[(3S,4S)-4-fluoropyrrolidin-3-yl]amino]-4-methyl-3,4,6,10b-tetrahydro-1H-pyrazino[2,1-a]isoindol-2-yl]quinoline-8-carbonitrile] |
| 3.5 nM | C[C@@H]1CN(c2ccc(C#N)c3ncccc23)C[C@@H]2c3ccc(N[C@@H]4CNC[C@@H]4F)cc3CN12 [Example 32, 5-[(4R,10bS)-8-[[(3R,4S)-4-fluoropyrrolidin-3-yl]amino]-4-methyl-3,4,6,10b-tetrahydro-1H-pyrazino[2,1-a]isoindol-2-yl]quinoline-8-carbonitrile] |
| < 3.2 nM | C[C@@H]1CN(c2ccc(C#N)c3ncccc23)C[C@@H]2c3ccc(N[C@@H]4CNC[C@H]4F)cc3CN12 [Example 33, 5-[(4R,10bS)-8-[[(3R,4R)-4-fluoropyrrolidin-3-yl]amino]-4-methyl-3,4,6,10b-tetrahydro-1H-pyrazino[2,1-a]isoindol-2-yl]quinoline-8-carbonitrile] |
| 7.4 nM | CO[C@@H]1CNC[C@H]1Nc1ccc2c(c1)CN1[C@H](C)CN(c3ccc(C#N)c4ncccc34)C[C@H]21 [Example 34, 5-[(4R,10bS)-8-[[(3R,4R)-4-methoxypyrrolidin-3-yl]amino]-4-methyl-3,4,6,10b-tetrahydro-1H-pyrazino[2,1-a]isoindol-2-yl]quinoline-8-carbonitrile] |
| < 3.2 nM | C[C@@H]1CN(c2ccc(C#N)c3ncccc23)C[C@@H]2c3ccc(N4CC5(CNCCO5)C4)cc3CN12 [Example 35, 5-[(4R,10bS)-4-methyl-8-(5-oxa-2,8-diazaspiro[3.5]nonan-2-yl)-3,4,6,10b-tetrahydro-1H-pyrazino[2,1-a]isoindol-2-yl]quinoline-8-carbonitrile] |
| 3.3 nM | C[C@@H]1CN(c2ccc(C#N)c3ncccc23)C[C@@H]2c3ccc(N4CC5(CNC5)C4)cc3CN12 [Example 36, 5-[(4R,10bS)-8-(2,6-diazaspiro[3.3]heptan-2-yl)-4-methyl-3,4,6,10b-tetrahydro-1H-pyrazino[2,1-a]isoindol-2-yl]quinoline-8-carbonitrile] |
| < 3.2 nM | C[C@@H]1CN(c2ccc(C#N)c3ncccc23)C[C@@H]2c3ccc(N4CC5(CCN5)C4)cc3CN12 [Example 37, 5-[(4R,10bS)-8-(1,6-diazaspiro[3.3]heptan-6-yl)-4-methyl-3,4,6,10b-tetrahydro-1H-pyrazino[2,1-a]isoindol-2-yl]quinoline-8-carbonitrile] |
| 1.7 nM | C[C@@H]1CN(c2ccc(C#N)c3ncccc23)C[C@@H]2c3ccc(N4CC5(CN(C)C5)C4)cc3CN12 [Example 38, 5-[(4R,10bS)-4-methyl-8-(6-methyl-2,6-diazaspiro[3.3]heptan-2-yl)-3,4,6,10b-tetrahydro-1H-pyrazino[2,1-a]isoindol-2-yl]quinoline-8-carbonitrile] |
| 3 nM | C[C@@H]1CN(c2ccc(C#N)c3ncccc23)C[C@@H]2c3ccc(N4CC(C)(N)C4)cc3CN12 [Example 39, 5-[(4R,10bS)-8-(3-amino-3-methyl-azetidin-1-yl)-4-methyl-3,4,6,10b-tetrahydro-1H-pyrazino[2,1-a]isoindol-2-yl]quinoline-8-carbonitrile] |
| 3.7 nM | C[C@@H]1CN(c2ccc(C#N)c3ncccc23)C[C@@H]2c3ccc(N4C[C@H](N)[C@@H](O)C4)cc3CN12 [Example 40A, 5-[(4R,10bS)-8-[(3S,4S)-3-amino-4-hydroxy-pyrrolidin-1-yl]-4-methyl-3,4,6,10b-tetrahydro-1H-pyrazino[2,1-a]isoindol-2-yl]quinoline-8-carbonitrile] |
| < 3.2 nM | COC12CNCC1CN(c1ccc3c(c1)CN1[C@H](C)CN(c4ccc(C#N)c5ncccc45)C[C@H]31)C2 (stereo partly drawn) [Example 41, 5-[(4R,10bS)-8-(3a-methoxy-1,2,3,4,6,6a-hexahydropyrrolo[3,4-c]pyrrol-5-yl)-4-methyl-3,4,6,10b-tetrahydro-1H-pyrazino[2,1-a]isoindol-2-yl]quinoline-8-carbonitrile] |
| < 3.2 nM | CN[C@H]1CN(c2ccc3c(c2)CN2[C@H](C)CN(c4ccc(C#N)c5ncccc45)C[C@H]32)C[C@@H]1O [Example 42, 5-[(4R,10bS)-8-[(3S,4S)-3-hydroxy-4-(methylamino)pyrrolidin-1-yl]-4-methyl-3,4,6,10b-tetrahydro-1H-pyrazino[2,1-a]isoindol-2-yl]quinoline-8-carbonitrile] |
| 4 nM | CN[C@@H]1CN(c2ccc3c(c2)CN2[C@H](C)CN(c4ccc(C#N)c5ncccc45)C[C@H]32)C[C@H]1O [Example 43, 5-[(4R,10bS)-4-methyl-8-[(3R,4R)-3-hydroxy-4-(methylamino)pyrrolidin-1-yl]-3,4,6,10b-tetrahydro-1H-pyrazino[2,1-a]isoindol-2-yl]quinoline-8-carbonitrile] |
| 19.1 nM | C[C@@H]1CN(c2ccc(C#N)c3ncccc23)C[C@@H]2c3ccc(N4C[C@H]5NCCO[C@@H]5C4)cc3CN12 [Example 44, 5-[(4R,10bS)-4-methyl-8-[(4aR,7aR)-3,4,4a,5,7,7a-hexahydro-2H-pyrrolo[3,4-b][1,4]oxazin-6-yl]-3,4,6,10b-tetrahydro-1H-pyrazino[2,1-a]isoindol-2-yl]quinoline-8-carbonitrile] |
